The supplement of paper PMC10307832

Assays:
Experiment in all cases: relative viability (nuclei count vs DMSO), 5 days (fraction); higher = more cells survive
Pemetrexed + Foretinib = compound: Nc1nc2[nH]cc(CCc3ccc(C(=O)N[C@@H](CCC(=O)O)C(=O)O)cc3)c2c(=O)[nH]1 [Pemetrexed] + COc1cc2c(Oc3ccc(NC(=O)C4(C(=O)Nc5ccc(F)cc5)CC4)cc3F)ccnc2cc1OCCCN1CCOCC1 [Foretinib] (partner 0.25 µM)
In short: (§1)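 The day after seeding in 1536-well plates, lung cancer cell lines were treated by pin tool with a single drug, or with a fixed anchor-drug dose together with five library-drug doses (not always all listed) in √10 steps. After 5 days, a combined fix-and-stain solution (final 0.05% Triton X-100, 1% formaldehyde, 1 ug/ml Hoechst) was added. Nuclei counted on 4× images gave relative viability as treated counts over vehicle counts, reported as the median of duplicate plates.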

Idelalisib + AZD7762 = compound: CC[C@H](Nc1ncnc2[nH]cnc12)c1nc2cccc(F)c2c(=O)n1-c1ccccc1 [Idelalisib] + NC(=O)Nc1cc(-c2cccc(F)c2)sc1C(=O)N[C@H]1CCCNC1 [AZD7762] (partner 0.2 µM)
In short: as §1

Idelalisib + Lapatinib = compound: CC[C@H](Nc1ncnc2[nH]cnc12)c1nc2cccc(F)c2c(=O)n1-c1ccccc1 [Idelalisib] + CS(=O)(=O)CCNCc1ccc(-c2ccc3ncnc(Nc4ccc(OCc5cccc(F)c5)c(Cl)c4)c3c2)o1 [Lapatinib] (partner 2 µM)
In short: as §1

Pemetrexed + Dasatinib = compound: Nc1nc2[nH]cc(CCc3ccc(C(=O)N[C@@H](CCC(=O)O)C(=O)O)cc3)c2c(=O)[nH]1 [Pemetrexed] + Cc1nc(Nc2ncc(C(=O)Nc3c(C)cccc3Cl)s2)cc(N2CCN(CCO)CC2)n1 [Dasatinib] (partner 0.075 µM)
In short: as §1

Cell Line | relative viability (Pemetrexed + Foretinib; first compound 0.002 µM) | relative viability (Pemetrexed + Foretinib; first compound 0.006325 µM) | relative viability (Pemetrexed + Foretinib; first compound 0.02 µM) | relative viability (Pemetrexed + Foretinib; first compound 0.06325 µM) | relative viability (Pemetrexed + Foretinib; first compound 0.2 µM) | relative viability (Idelalisib + AZD7762; first compound 0.04 µM) | relative viability (Idelalisib + AZD7762; first compound 0.1265 µM) | relative viability (Idelalisib + AZD7762; first compound 0.4 µM) | relative viability (Idelalisib + AZD7762; first compound 1.265 µM) | relative viability (Idelalisib + AZD7762; first compound 4 µM) | relative viability (Idelalisib + Lapatinib; first compound 0.04 µM) | relative viability (Idelalisib + Lapatinib; first compound 0.1265 µM) | relative viability (Idelalisib + Lapatinib; first compound 0.4 µM) | relative viability (Idelalisib + Lapatinib; first compound 1.265 µM) | relative viability (Idelalisib + Lapatinib; first compound 4 µM) | relative viability (Pemetrexed + Dasatinib; first compound 0.002 µM) | relative viability (Pemetrexed + Dasatinib; first compound 0.006325 µM) | relative viability (Pemetrexed + Dasatinib; first compound 0.02 µM) | relative viability (Pemetrexed + Dasatinib; first compound 0.06325 µM) | relative viability (Pemetrexed + Dasatinib; first compound 0.2 µM)
NCI-H650 | 1.07 | 0.97 | 1.08 | 0.988 | 1.02 | 1.48 | 1.04 | 0.79 | 0.378 | 1.08 | 1.17 | 1.07 | 0.944 | 0.924 | 0.877 | 0.408 | 0.469 | 0.431 | 0.444 | 0.481
NCI-H1975 | 0.899 | 0.914 | 1.02 | 0.825 | 0.401 | 0.75 | 0.724 | 0.661 | 0.743 | 0.646 | 0.966 | 0.99 | 0.836 | 0.889 | 0.61 | 0.249 | 0.333 | 0.429 | 0.342 | 0.275
NCI-H2126 | 1.02 | 1.19 | 1.29 | 0.565 | 1.03 | 0.961 | 1.06 | 0.94 | 1.02 | 1 | 0.808 | 0.785 | 0.634 | 0.764 | 0.728 | 0.571 | 0.607 | 0.625 | 0.548 | 0.517
NCI-H2087 | 1.09 | 1.01 | 1.17 | 0.986 | 0.783 | 1.34 | 1.33 | 1.32 | 1.19 | 1.32 | 1.15 | 1.06 | 1.13 | 1.11 | 1.18 | 0.819 | 0.808 | 0.974 | 0.751 | 0.59
